Experimental data: patent US20230212144A1, “5-MEMBERED HETEROARYL DERIVATIVE CONTAINING AT LEAST ONE N, AND PHARMACEUTICAL COMPOSITION FOR PREVENTING OR TREATING MENTAL DISORDERS, CONTAINING SAME AS ACTIVE INGREDIENT” (DAEGU-GYEONGBUK MEDICAL INNOVATION FOUNDATION, priority 2020, published 2023)

How the values were obtained:
[1] = biological target: serotonin transporter (SERT) (Homo sapiens, UniProt P31645); experiment: Serotonin reuptake inhibition, [3H]-5-HT, cells transfected with 5-HT transporter cDNA; settings: for Triple reuptake inhibition (Ratio %) SERT: compound 1 μM, relative to control without compound (100%), lower value = stronger inhibition
serotonin transporter (SERT), sequence (P31645 whole entry, species assumed): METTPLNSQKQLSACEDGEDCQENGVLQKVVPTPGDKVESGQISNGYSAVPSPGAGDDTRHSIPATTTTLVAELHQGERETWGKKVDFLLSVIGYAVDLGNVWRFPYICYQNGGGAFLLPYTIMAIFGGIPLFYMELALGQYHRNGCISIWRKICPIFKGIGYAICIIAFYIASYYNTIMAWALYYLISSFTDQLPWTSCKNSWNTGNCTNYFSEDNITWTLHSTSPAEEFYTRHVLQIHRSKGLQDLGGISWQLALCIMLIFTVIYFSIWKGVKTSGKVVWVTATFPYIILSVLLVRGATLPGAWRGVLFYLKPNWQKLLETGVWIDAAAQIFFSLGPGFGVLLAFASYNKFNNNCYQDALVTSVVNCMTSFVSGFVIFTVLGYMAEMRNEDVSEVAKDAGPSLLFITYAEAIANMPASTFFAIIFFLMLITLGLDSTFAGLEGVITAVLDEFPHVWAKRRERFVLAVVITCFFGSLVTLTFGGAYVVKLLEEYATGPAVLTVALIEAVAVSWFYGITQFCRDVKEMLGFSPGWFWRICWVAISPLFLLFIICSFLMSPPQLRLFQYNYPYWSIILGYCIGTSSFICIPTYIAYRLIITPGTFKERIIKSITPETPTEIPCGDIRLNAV
Procedure: (§1) After removing the medium, each compound of Examples or Comparative Examples diluted to 1 μM in uptake buffer was added to a concentration of 200 μL/well and cultured at 37° C. for 15 minutes. 100 μL of uptake buffer containing 20-30 nM [3H]-DA was added and cultured at 37° C. for 5 minutes. The reaction solution was quickly removed and washed three times with 1 mL ice-cold uptake buffer. After dissolving the resultant in 1% SDS (0.5 mL), the degree of binding of radioisotope-labeled dopamine to the transporter was measured.
(§2) For norepinephrine(NE) and serotonin(5-HT), the degree of binding of radioisotope-labeled norepinephrine or serotonin to the transporter was measured in the same manner as above, except that cells transfected with NE or 5-HT transporter cDNA were used and [3H]-NE or [3H]-5-HT was used as a substrate.
(§3) In addition, when evaluating the reuptake inhibitory effect on dopamine, norepinephrine, and serotonin, the same method was performed without treating each compound of Examples or Comparative Examples as a control, the degree of binding of radioisotope-labeled dopamine, norepinephrine, and serotonin to the transporter was measured, and by using this as a reference (100%), the triple reuptake inhibitory effect was evaluated as a relative ratio (Ratio %). That is, in the control group, the binding of dopamine, norepinephrine, and serotonin to transporters is not inhibited, but when each compound of Examples is treated and thus the binding is inhibited, the Ratio % value decreases.

[2] = biological target: norepinephrine transporter (NET) (Homo sapiens, UniProt P23975); experiment: Norepinephrine reuptake inhibition, [3H]-NE, cells transfected with NE transporter cDNA; settings: for Triple reuptake inhibition (Ratio %) NET: compound 1 μM, relative to control without compound (100%), lower value = stronger inhibition
norepinephrine transporter (NET), sequence (P23975 whole entry, species assumed): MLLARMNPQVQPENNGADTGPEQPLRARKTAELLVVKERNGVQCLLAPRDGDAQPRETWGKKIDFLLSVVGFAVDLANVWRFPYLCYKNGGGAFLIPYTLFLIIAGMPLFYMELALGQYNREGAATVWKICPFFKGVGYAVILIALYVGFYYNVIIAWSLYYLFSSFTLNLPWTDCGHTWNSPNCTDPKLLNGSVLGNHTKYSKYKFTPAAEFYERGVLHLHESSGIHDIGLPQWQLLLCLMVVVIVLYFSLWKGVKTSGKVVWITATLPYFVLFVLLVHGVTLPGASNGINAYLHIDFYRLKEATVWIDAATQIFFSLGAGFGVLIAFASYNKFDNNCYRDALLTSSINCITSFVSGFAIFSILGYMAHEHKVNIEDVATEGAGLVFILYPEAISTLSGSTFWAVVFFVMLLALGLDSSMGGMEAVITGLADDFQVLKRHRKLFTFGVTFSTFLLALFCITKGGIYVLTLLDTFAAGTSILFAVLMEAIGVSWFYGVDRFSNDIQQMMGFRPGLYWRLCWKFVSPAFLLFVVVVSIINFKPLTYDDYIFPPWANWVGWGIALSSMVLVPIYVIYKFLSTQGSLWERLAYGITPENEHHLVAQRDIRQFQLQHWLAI
Procedure: as §1, §2, §3

[3] = biological target: dopamine transporter (DAT) (Homo sapiens, UniProt Q01959); experiment: Dopamine reuptake inhibition, [3H]-DA, HEK-293 cells transfected with dopamine transporter cDNA; settings: for Triple reuptake inhibition (Ratio %) DAT: compound 1 μM, relative to control without compound (100%), lower value = stronger inhibition
dopamine transporter (DAT), sequence (Q01959 whole entry, species assumed): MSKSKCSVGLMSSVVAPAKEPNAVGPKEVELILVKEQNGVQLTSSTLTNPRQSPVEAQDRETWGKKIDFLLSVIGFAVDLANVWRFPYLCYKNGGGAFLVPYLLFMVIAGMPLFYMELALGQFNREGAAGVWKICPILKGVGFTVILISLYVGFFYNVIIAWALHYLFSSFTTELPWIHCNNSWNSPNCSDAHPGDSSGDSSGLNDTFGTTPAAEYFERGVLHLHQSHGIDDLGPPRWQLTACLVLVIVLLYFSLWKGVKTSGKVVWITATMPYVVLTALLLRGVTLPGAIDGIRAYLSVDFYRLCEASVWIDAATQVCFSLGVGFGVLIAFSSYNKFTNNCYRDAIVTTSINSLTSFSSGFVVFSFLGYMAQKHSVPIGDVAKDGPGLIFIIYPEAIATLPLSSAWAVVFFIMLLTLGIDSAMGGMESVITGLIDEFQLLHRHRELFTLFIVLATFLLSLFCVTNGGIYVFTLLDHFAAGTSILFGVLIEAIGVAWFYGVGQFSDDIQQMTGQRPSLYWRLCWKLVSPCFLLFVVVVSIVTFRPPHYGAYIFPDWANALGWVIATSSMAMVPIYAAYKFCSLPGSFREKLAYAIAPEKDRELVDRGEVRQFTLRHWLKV
Procedure: as §1, §3

Q: For `c1ccc(CC2CCN(Cc3nnc(-c4cc5ccccc5[nH]4)[nH]3)CC2)cc1` [Example 1, 2-(5-((4-benzylpiperidin-1-yl)methyl)-4H-1,2,4-triazol-3-yl)-1H-indole], which IC50 [1] is on record?
A: Its IC50 is 3730 nM.

Q: And the “Triple reuptake inhibition (Ratio %) SERT” value [1]?
A: Its value is 91.56%.

Q: And the IC50 [2]?
A: Its IC50 is 343 nM.

Q: And the “Triple reuptake inhibition (Ratio %) NET” value [2]?
A: The value was 26.06%.

Q: What about the IC50 [3] of the same molecule?
A: The IC50 was 170 nM.

Q: And the “Triple reuptake inhibition (Ratio %) DAT” value [3]?
A: The value was 14.90%.

Q: What does the source list for `Fc1ccc2[nH]c(-c3nnc(CN4CCC(Cc5ccccc5)CC4)[nH]3)cc2c1` [Example 2, 2-(5-((4-benzylpiperidin-1-yl)methyl)-4H-1,2,4-triazol-3-yl)-5-fluoro-1H-indole]?
A: IC50 [1]: 5200 nM; Triple reuptake inhibition (Ratio %) SERT [1]: 67.47%; IC50 [2]: 14 nM; Triple reuptake inhibition (Ratio %) NET [2]: 2.58%; IC50 [3]: 83 nM; Triple reuptake inhibition (Ratio %) DAT [3]: 3.94%

Q: For `c1ccc(C2CCN(Cc3nnc(-c4cc5ccccc5[nH]4)[nH]3)CC2)cc1` [Example 3, 2-(5-((4-phenylpiperidin-1-yl)methyl)-4H-1,2,4-triazol-3-yl)-1H-indole], which “Triple reuptake inhibition (Ratio %) SERT” value [1] is on record?
A: Its value is 95.94%.

Q: What about the “Triple reuptake inhibition (Ratio %) NET” value [2] of the same molecule?
A: The value was 124.39%.

Q: And the “Triple reuptake inhibition (Ratio %) DAT” value [3]?
A: The value was 81.14%.

Q: How did the “Triple reuptake inhibition (Ratio %) SERT” value [1] turn out when `c1ccc(CN2CCN(Cc3nnc(-c4cc5ccccc5[nH]4)[nH]3)CC2)cc1` [Example 4, 2-(5-((4-benzylpiperazin-1-yl)methyl)-4H-1,2,4-triazol-3-yl)-1H-indole] was run?
A: The value was 90.26%.

Q: And the “Triple reuptake inhibition (Ratio %) NET” value [2]?
A: Its value is 64.76%.

Q: And the “Triple reuptake inhibition (Ratio %) DAT” value [3]?
A: Its value is 22.39%.

Q: For `Clc1ccc(CC2CCN(Cc3nnc(-c4cc5ccccc5[nH]4)[nH]3)CC2)cc1Cl` [Example 5, 2-(5-((4-(3,4-dichlorobenzyl)piperidin-1-yl)methyl)-4H-1,2,4-triazol-3-yl)-1H-indole], which “Triple reuptake inhibition (Ratio %) SERT” value [1] is on record?
A: Its value is 91.11%.

Q: What about the “Triple reuptake inhibition (Ratio %) NET” value [2] of the same molecule?
A: Its value is 78.01%.

Q: And the “Triple reuptake inhibition (Ratio %) DAT” value [3]?
A: Its value is 88.53%.

Q: With `COc1ccc(CC2CCN(Cc3nnc(-c4cc5ccccc5[nH]4)[nH]3)CC2)cc1` [Example 6, 2-(5-((4-(4-methoxybenzyl)piperidin-1-yl)methyl)-4H-1,2,4-triazol-3-yl)-1H-indole] as the molecule, how does the “Triple reuptake inhibition (Ratio %) SERT” value [1] read?
A: The value was 70.39%.

Q: And the “Triple reuptake inhibition (Ratio %) NET” value [2]?
A: Its value is 88.83%.

Q: And the “Triple reuptake inhibition (Ratio %) DAT” value [3]?
A: The value was 88.63%.

Q: How did the “Triple reuptake inhibition (Ratio %) SERT” value [1] turn out when `Clc1ccc(CC2CCN(Cc3nnc(-c4cc5ccccc5[nH]4)[nH]3)CC2)cc1` [Example 7, 2-(5-((4-(4-chlorobenzyl)piperidin-1-yl)methyl)-4H-1,2,4-triazol-3-yl)-1H-indole] was run?
A: Its value is 79.48%.

Q: And the “Triple reuptake inhibition (Ratio %) NET” value [2]?
A: The value was 103.43%.

Q: What about the “Triple reuptake inhibition (Ratio %) DAT” value [3] of the same molecule?
A: Its value is 73.88%.

Q: For `Clc1cccc(CC2CCN(Cc3nnc(-c4cc5ccccc5[nH]4)[nH]3)CC2)c1` [Example 8, 2-(5-((4-(3-chlorobenzyl)piperidin-1-yl)methyl)-4H-1,2,4-triazol-3-yl)-1H-indole], which “Triple reuptake inhibition (Ratio %) SERT” value [1] is on record?
A: The value was 88.65%.

Q: What about the “Triple reuptake inhibition (Ratio %) NET” value [2] of the same molecule?
A: The value was 66.48%.

Q: What about the “Triple reuptake inhibition (Ratio %) DAT” value [3] of the same molecule?
A: The value was 32.29%.

Q: How did the “Triple reuptake inhibition (Ratio %) SERT” value [1] turn out when `c1ccc(CC2CCN(Cc3nnc(-c4ccccc4)[nH]3)CC2)cc1` [Example 9, 4-benzyl-1-((5-phenyl-4H-1,2,4-triazol-3-yl)methyl)piperidine] was run?
A: The value was 95.15%.

Q: What about the “Triple reuptake inhibition (Ratio %) NET” value [2] of the same molecule?
A: Its value is 73.45%.

Q: And the “Triple reuptake inhibition (Ratio %) DAT” value [3]?
A: The value was 32.29%.

Q: How did the IC50 [1] turn out when `COc1cc2cc(-c3nnc(CN4CCC(Cc5ccccc5)CC4)[nH]3)[nH]c2cc1OC` [Example 12, 2-(5-((4-benzylpiperidin-1-yl)methyl)-4H-1,2,4-triazol-3-yl)-5,6-dimethoxy-1H-indole] was run?
A: Its IC50 is 1150 nM.

Q: And the “Triple reuptake inhibition (Ratio %) SERT” value [1]?
A: Its value is 63.05%.

Q: And the IC50 [2]?
A: Its IC50 is 36 nM.

Q: And the “Triple reuptake inhibition (Ratio %) NET” value [2]?
A: Its value is 3.38%.

Q: What about the IC50 [3] of the same molecule?
A: The IC50 was 174 nM.

Q: And the “Triple reuptake inhibition (Ratio %) DAT” value [3]?
A: Its value is 5.96%.

Q: Which results are given for `COc1ccc2[nH]c(-c3nnc(CN4CCC(Cc5ccccc5)CC4)[nH]3)cc2c1` [Example 13, 2-(5-((4-benzylpiperidin-1-yl)methyl)-4H-1,2,4-triazol-3-yl)-5-methoxy-1H-indole]?
A: IC50 [1]: 1210 nM; Triple reuptake inhibition (Ratio %) SERT [1]: 60.60%; IC50 [2]: 70 nM; Triple reuptake inhibition (Ratio %) NET [2]: 4.78%; Triple reuptake inhibition (Ratio %) DAT [3]: 10.00%

Q: What does the source list for `Clc1ccc2[nH]c(-c3nnc(CN4CCC(Cc5ccccc5)CC4)[nH]3)cc2c1` [Example 14, 2-(5-((4-benzylpiperidin-1-yl)methyl)-4H-1,2,4-triazol-3-yl)-5-chloro-1H-indole]?
A: IC50 [1]: 1660 nM; Triple reuptake inhibition (Ratio %) SERT [1]: 74.39%; IC50 [2]: 173 nM; Triple reuptake inhibition (Ratio %) NET [2]: 5.84%; IC50 [3]: 16 nM; Triple reuptake inhibition (Ratio %) DAT [3]: 7.44%

Q: How did the IC50 [1] turn out when `Cc1ccc2[nH]c(-c3nnc(CN4CCC(Cc5ccccc5)CC4)[nH]3)cc2c1` [Example 15, 2-(5-((4-benzylpiperidin-1-yl)methyl)-4H-1,2,4-triazol-3-yl)-5-methyl-1H-indole] was run?
A: Its IC50 is 25000 nM.

Q: And the “Triple reuptake inhibition (Ratio %) SERT” value [1]?
A: The value was 83.60%.

Q: What about the IC50 [2] of the same molecule?
A: The IC50 was 1110 nM.

Q: What about the “Triple reuptake inhibition (Ratio %) NET” value [2] of the same molecule?
A: Its value is 49.82%.

Q: What about the IC50 [3] of the same molecule?
A: The IC50 was 173 nM.

Q: And the “Triple reuptake inhibition (Ratio %) DAT” value [3]?
A: Its value is 21.04%.

Q: Which IC50 [1] does the source give for `Fc1ccc2cc(-c3nnc(CN4CCC(Cc5ccccc5)CC4)[nH]3)[nH]c2c1` [Example 16, 2-(5-((4-benzylpiperidin-1-yl)methyl)-4H-1,2,4-triazol-3-yl)-6-fluoro-1H-indole] here?
A: The IC50 was 3650 nM.

Q: What about the “Triple reuptake inhibition (Ratio %) SERT” value [1] of the same molecule?
A: The value was 80.93%.

Q: What about the IC50 [2] of the same molecule?
A: The IC50 was 501 nM.

Q: And the “Triple reuptake inhibition (Ratio %) NET” value [2]?
A: The value was 36.38%.

Q: And the IC50 [3]?
A: Its IC50 is 48 nM.

Q: And the “Triple reuptake inhibition (Ratio %) DAT” value [3]?
A: Its value is 12.06%.

Q: How did the IC50 [1] turn out when `N#Cc1ccc2[nH]c(-c3nnc(CN4CCC(Cc5ccccc5)CC4)[nH]3)cc2c1` [Example 17, 2-(5-((4-benzylpiperidin-1-yl)methyl)-4H-1,2,4-triazol-3-yl)-1H-indol-5-carbonitrile] was run?
A: Its IC50 is 945 nM.

Q: And the “Triple reuptake inhibition (Ratio %) SERT” value [1]?
A: The value was 50.31%.

Q: What about the IC50 [2] of the same molecule?
A: Its IC50 is 226 nM.

Q: And the “Triple reuptake inhibition (Ratio %) NET” value [2]?
A: Its value is 11.66%.

Q: And the IC50 [3]?
A: Its IC50 is 83 nM.

Q: And the “Triple reuptake inhibition (Ratio %) DAT” value [3]?
A: Its value is 9.25%.

Q: Which results are given for `COc1ccc2cc(-c3nnc(CN4CCC(Cc5ccccc5)CC4)[nH]3)[nH]c2c1` [Example 18, 2-(5-((4-benzylpiperidin-1-yl)methyl)-4H-1,2,4-triazol-3-yl)-6-methoxy-1H-indole]?
A: IC50 [1]: 1580 nM; Triple reuptake inhibition (Ratio %) SERT [1]: 66.40%; IC50 [2]: 611 nM; Triple reuptake inhibition (Ratio %) NET [2]: 22.07%; IC50 [3]: 76 nM; Triple reuptake inhibition (Ratio %) DAT [3]: 37.07%

Q: Which IC50 [1] does the source give for `COc1cccc2cc(-c3nnc(CN4CCC(Cc5ccccc5)CC4)[nH]3)[nH]c12` [Example 19, 2-(5-((4-benzylpiperidin-1-yl)methyl)-4H-1,2,4-triazol-3-yl)-7-methoxy-1H-indole] here?
A: The IC50 was 1170 nM.

Q: And the “Triple reuptake inhibition (Ratio %) SERT” value [1]?
A: The value was 81.23%.

Q: And the IC50 [2]?
A: The IC50 was 188 nM.

Q: And the “Triple reuptake inhibition (Ratio %) NET” value [2]?
A: The value was 15.80%.

Q: What about the IC50 [3] of the same molecule?
A: The IC50 was 247 nM.

Q: What about the “Triple reuptake inhibition (Ratio %) DAT” value [3] of the same molecule?
A: Its value is 21.23%.

Q: `CC(=O)Nc1ccc2[nH]c(-c3nnc(CN4CCC(Cc5ccccc5)CC4)[nH]3)cc2c1` [Example 66, N-(2-(5-((4-benzylpiperidin-1-yl)methyl)-4H-1,2,4-triazol-3-yl)-1H-indol-5-yl)acetamide] was tested. Which “Triple reuptake inhibition (Ratio %) NET” value [2] did it give?
A: Its value is 58.77%.

Q: And the “Triple reuptake inhibition (Ratio %) DAT” value [3]?
A: The value was 51.59%.

Q: Which results are given for `CCCCOc1ccc2cc(-c3nnc(CN4CCC(Cc5ccccc5)CC4)[nH]3)[nH]c2c1` [Example 69, 2-(5-((4-benzylpiperidin-1-yl)methyl)-4H-1,2,4-triazol-3-yl)-6-butoxy-1H-indole]?
A: Triple reuptake inhibition (Ratio %) NET [2]: 90.43%; Triple reuptake inhibition (Ratio %) DAT [3]: 50.33%
